Broadly, the inhibition is the percentage by which the read-out fell short of the control. What is called melting point is the temperature, or range, at which the solid turns liquid.

SMILES strings stand for the structures. Converted amounts (≈) assume the structure as drawn. Read-outs that look alike come from different tables or passages of the source.

Data on four molecules can be found in patent publication US8722937B2 (priority 2006, dated 2014).

Series [1] deals with T1, FabH derived from E. coli (ecFabH) (Escherichia coli, UniProt P0A6R0).
T1 construct: polyhistidine (N); made in house; host or cells: E. coli
T1 sequence (P0A6R0 1-317): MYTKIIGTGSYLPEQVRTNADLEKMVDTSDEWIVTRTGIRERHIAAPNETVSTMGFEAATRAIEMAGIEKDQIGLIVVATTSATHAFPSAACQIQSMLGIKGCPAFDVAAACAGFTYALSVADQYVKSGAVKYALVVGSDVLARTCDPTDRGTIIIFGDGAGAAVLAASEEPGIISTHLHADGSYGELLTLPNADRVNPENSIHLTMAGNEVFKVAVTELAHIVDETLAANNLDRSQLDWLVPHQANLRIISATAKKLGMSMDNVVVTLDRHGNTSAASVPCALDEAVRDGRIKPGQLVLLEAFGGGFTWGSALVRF
In words: FabH enzyme assay (coupled trichloroacetic acid precipitation assay), ecFabH. The series is classed as biochemical. To be noted: 5 μM of test compound; read-out: Percent inhibition of FabH derived from E. coli, ecFabH (%).

The subject of series [2] is S. aureus (ATCC 25923). In words: microbe, parasite or virus in culture. Format: cell-based, Staphylococcus aureus. The conditions noted are these: for zone of inhibition at 20 µg/disc: Staphylococcus aureus, ATCC25923, 24 h, 37° C.
The test system of series [3] is methicillin-resistant S. aureus (MRSA). Briefly: microbe, parasite or virus in culture. The series is classed as cell-based, Staphylococcus aureus.
For series [4], the system named is S. aureus (ATCC 25923). Briefly: Agar dilution minimum inhibitory concentration (MIC), S. aureus. Format: cell-based, Staphylococcus aureus.
Series [5] concerns B. anthracis (USF 848). Briefly: microbe, parasite or virus in culture. Format: cell-based, Bacillus anthracis. To be noted: Bacillus anthracis, 24 h, 37° C.
Series [6] relates to B. anthracis (USF 848). In words: microbe, parasite or virus in culture. The series is classed as cell-based, Bacillus anthracis. To be noted: Bacillus anthracis, read-out: Minimum inhibitory concentration (MIC) against B. anthracis (USF 848).
The test system of series [7] is E. coli (K12; ATCC 23590). In words: Kirby-Bauer zones of inhibition, E. coli. The series is classed as cell-based, Escherichia coli. The conditions noted are these: K12 strain, ATCC 23590.
For series [8], the system named is E. coli (K12; ATCC 23590). In words: Minimum inhibitory concentration (MIC), E. coli. Format: cell-based. The conditions noted are these: Escherichia coli, ATCC23590, read-out: MIC (μg/mL) against E. coli.
The next series has as its system B. anthracis. To be noted: cited from earlier work.
Another series has as its system M. tuberculosis. To be noted: reported by Jones et al.; cited from earlier work.
Another series concerns MRSA (ATCC 43300). In words: Minimum inhibitory concentration (MIC), MRSA. Format: cell-based, Staphylococcus aureus.

`CSSc1ccc([N+](=O)[O-])cc1` [Compound 38a, p-Nitrophenyl Methyl Disulfide] registered a melting point of 29 to 32 °C. In addition, the inhibition at 5 µM in series [1] was 94%. Moreover, the zone of inhibition at 20 µg/disc with S. aureus (ATCC 25923) [2] (read-out: Zones of growth inhibition of S. aureus (ATCC 25923)) came to 30 mm. For the same molecule, in the series on S. aureus (ATCC 25923) [2] (read-out: Zones of growth inhibition of S. aureus (ATCC 25923), areas of partial inhibition), the zone of inhibition at 20 µg/disc was 35 mm. Also, the zone of inhibition at 20 µg/disc in [3] (Staphylococcus aureus, MRSA, 24 h, 37° C., read-out: Average zones of growth inhibition of MRSA (USF-652-659, 919-920)) is 23 mm. In the series on S. aureus (ATCC 25923) [4] (Staphylococcus aureus, ATCC25923, serial dilution in 24-well plate, NCCLS, read-out: Minimum inhibitory concentration (MIC) against S. aureus (ATCC 25923)), the MIC is 16 µg/mL (≈ 79.5 µM). The zone of inhibition at 20 µg/disc in the series on B. anthracis (USF 848) [5] (read-out: Zones of growth inhibition of B. anthracis (USF 848)) worked out at 47 mm. For the same molecule, in the series on B. anthracis (USF 848) [5] (read-out: Zones of growth inhibition of B. anthracis (USF 848), areas of partial growth inhibition), the zone of inhibition at 20 µg/disc was 54 mm. Moreover, in the series on B. anthracis (USF 848) [6], the MIC stood at 0.25 µg/mL (≈ 1.24 µM). The “Zone of Inhibition (mm), E. coli, zones of partial inhibition” value in [7] (number in parentheses) amounted to 24 mm. Also, the “Zone of Inhibition (mm), E. coli” value in [7] (number outside parentheses) amounted to 17 mm. Moreover, the MIC in series [8] was 16 µg/mL (≈ 79.5 µM).
For the molecule `O=C(O)c1cn(C2CC2)c2cc(N3CCNCC3)c(F)cc2c1=O` [Ciprofloxacin], the “reported value for Ciprofloxacin (for 50% growth inhibition)” value with B. anthracis is reported as 0.094.
`CC(C)CCCCCCCS(=O)(=O)CC(N)=O` [Compound 30]: in the series with M. tuberculosis, the “activity against M. tuberculosis, in words” value is given as “good activity”.
Regarding `CSN1C(=O)OCC1c1ccccc1` (stereo not drawn) [Compound 13, reference compound], the “Zone (MSSA)” value in the series with S. aureus (ATCC 25923) [2] came to 29 mm. Besides, the “Zone (MRSA)” value in [3] was 28 mm. Also, in the series with S. aureus (ATCC 25923) [4] (MSSA ATCC 25923), the “MIC (MSSA)” value was determined as 4 µg/mL (≈ 19.1 µM). In the series with MRSA (ATCC 43300), the “MIC (MRSA)” value was 8 µg/mL (≈ 38.2 µM).
